Assay [1] concerns the target T1, heat shock 70 kDa protein (HSP70) (Homo sapiens, UniProt P0DMV8).
T1 construct: purchased Sino Biological 11660-H07H
The experiment in a line: nDEL affinity selection against HSP70 (enrichment fold by deep sequencing). It counts as binding. Particulars: ratio of normalized sequencing counts in presence and absence of target protein; DNA-encoded compound. As for the experimental part: (§1) The panning procedure for these two soluble protein were the same. 5 μg of target protein was mixed with Ni-charged MagBeads (GenScript, Cat. #L00295), 5 nM DEL library and 10 μg/mL Salmon sperm DNA. The final volume to adjusted to 100 μL. The mixture was rotated at room temperature for 1.5 h. After washing 5 times by phosphate-buffered saline supplemented 0.05% Tween-20 (PBST), the target protein binding chemical-DNA conjugations were eluted by heating at 95° C. for 10 min in 50 μL elution buffer (20 mM Tris, pH 7.4, 100 mM NaCl). The eluted DEL compounds were amplified by PCR using Takara PrimerSTAR Max DNA Polymerase (Takara, Cat. #R045A). Then the excess primers was removed by Hieff NGS™ smarter DNA clean beads (Yeasen, Cat. #12600E503) and evaluated on 4% DNA agarose gel. The amplified products was subjected for high-throughput sequencing using Illumina HiSeq X10 Analyzer.
The combinatorial chemical library was constructed by three building block sub libraries, containing 6, 46 and 46 chemical building blocks respectively for the first, second and third building block libraries, respectively. Each building block was encoded by a 10-base pair (bp) DNA sequence. The natural products were encoded by a 30-bp DNA sequence, same length as the combinatorial chemical library DNA codes. […] After sequencing, the Illumina adaptors around the DNA coding sequences were trimmed by CLC genomics workbench version 12 (Qiagen). The left DNA coding sequences were 30 bp in length corresponding to the three DNA sequences of building blocks in 3 rounds of “split-pool” iterations. For each sample, the DNA coding sequences were mapped to the reference DNA encoding compound library. No mismatch was allowed in the mapping. The coding sequences were counted for all the compounds across different samples. The total read-counts of all the compounds in a given sample were calculated. The read-counts for each individual compound were divided by the total counts, multiplied with a constant of 100000.
(§2) NormalizedCountCompoundM,SampleA=CountCompoundM,SampleA/(TotalCountSampleA)*100000
The fold changes of each compound in the after-selection library comparing to the reference library were calculated.
(§3) FoldChangeCompoundM=NormalizedCountCompoundM,SampleA/NormalizedCountCompoundM,Ref
(§4) The hit criteria of nDEL screening take into account of both the normalized enrichment fold values (y-axis) and deep sequencing read counts (x-axis). Compounds with read counts less than 10 are considered unreliable, thus they are eliminated immediately from DEL before on-target screening. For each DEL library, a baseline enrichment fold is recorded in the absence of target protein, and a normalized enrichment fold value can be calculated for each DEL compound in the library. The cutoff for hits identification is based on a simplified statistical analysis of a highly diverse population of data, which is the sum of average value of enrichment-folds of the whole library (μ) plus 3 times of the standard deviation (σ).
Two target proteins with different cellular locations and biophysical properties were used in nDEL screens. […] The known functional binders for these targets were included in nDEL as internal positive controls, e.g., oridonin for HSP70 and derivatives of olaparib (F001, F002, F003 and F006) for PARP-1. To account for the non-uniform distribution of DNA barcodes in nDEL, a blank screen of nDEL in the absence of target proteins but presence of immobilization matrix beads was carried out first and followed by deep-sequencing to establish the baseline distribution of barcodes in the library. All screening data were analyzed using the method described by Decurtins et al., Nat Protoc. […] The corresponding DNA sequence of each nDEL compound were tallied based on its sequencing counts. The enrichment fold is calculated as the ratio of normalized sequencing counts in the presence and absence of target protein.

For assay [2], the target named is T2, poly [ADP-ribose] polymerase 1 (PARP1) (Homo sapiens, UniProt P09874).
T2 construct: purchased Sino Biological 11040-H08B
Kind of assay: nDEL affinity selection against PARP-1 (enrichment fold by deep sequencing). It counts as binding. Particulars: for Fold Change, enrichment folds for PARP-1 binder selection: ratio of normalized sequencing counts in presence and absence of target protein, DNA-encoded compound. As for the experimental part: as §1, with “The his-tag fused recombinant human PARP-1 (Sino Biological, Cat. #11040-H08B) and human-HSP70 (Sino Biological, Cat. #11660-H07H) were obtained from commercial source. The panning” for “The panning”
The combinatorial chemical library was constructed by three building block sub libraries, containing 6, 46 and 46 chemical building blocks respectively for the first, second and third building block libraries, respectively. Each building block was encoded by a 10-base pair (bp) DNA sequence. The natural products were encoded by a 30-bp DNA sequence, same length as the combinatorial chemical library DNA codes. All the possible combinations (combinatorial chemical compounds) between these three sub libraries were generated by an inhouse java program, which generated a reference DNA encoding library contains 12696 DNA encoding sequences. After sequencing, the Illumina adaptors around the DNA coding sequences were trimmed by CLC genomics workbench version 12 (Qiagen). The left DNA coding sequences were 30 bp in length corresponding to the three DNA sequences of building blocks in 3 rounds of “split-pool” iterations. For each sample, the DNA coding sequences were mapped to the reference DNA encoding compound library. No mismatch was allowed in the mapping. The coding sequences were counted for all the compounds across different samples. The total read-counts of all the compounds in a given sample were calculated. The read-counts for each individual compound were divided by the total counts, multiplied with a constant of 100000.
as §2
The fold changes of each compound in the after-selection library comparing to the reference library were calculated. For example, if SampleA and Reference library were compared, for the fold change of CompoundM was calculated as:
as §3, §4
Two target proteins with different cellular locations and biophysical properties were used in nDEL screens. […] The known functional binders for these targets were included in nDEL as internal positive controls, e.g., oridonin for HSP70 and derivatives of olaparib (F001, F002, F003 and F006) for PARP-1.

Counter-ions that a name gives are not always drawn.

For `C[C@@H]1O[C@@H](O[C@H]2[C@H](Oc3cc(O)c4c(c3)O[C@H](c3ccc(O)cc3)CC4=O)O[C@H](CO)[C@@H](O)[C@@H]2O)[C@H](O)[C@H](O)[C@H]1O` [Naringin], in assay [1], the “Enrichment Fold, HSP70 binder selection” value is 4.5. The “Selected among enriched chemicals in PARP-1 nDEL screening” value in assay [2] (hit selection, FIG. 20(b), FIG. 21) was “selected”. Further, the “Fold Change, enrichment folds for PARP-1 binder selection” value in assay [2] amounted to 2.17. For `O=C(O[C@@H]1Cc2c(O)cc(O)cc2O[C@@H]1c1ccc(O)c(O)c1)c1cc(O)c(O)c(O)c1` [(−)-Epicatechin gallate, (−)- Epicatechingallate], the “Enrichment Fold, HSP70 binder selection” value in assay [1] is 5.0. Further, in assay [2], the “Fold Change, enrichment folds for PARP-1 binder selection” value came to 2.81. Consider `COC(=O)c1ccc(O)c(O)c1` [Methyl protocatechuate], for which, in assay [1], the “Enrichment Fold, HSP70 binder selection” value stood at 3.6.

For the compound `Cn1c(=O)c2c(ncn2CC(=O)O)n(C)c1=O` [Theophylline-7-acetic acid, Theophylline-7-acetic acid, reference compound], in assay [1], the “Enrichment Fold, HSP70 binder selection” value is 3.3. The same measure, in the same setting: the same measure for `O=C(O)c1ccc(O)c(O)c1` [Protocatechuic acid]: 3.8; for `c1ccc(CNc2ncnc3nc[nH]c23)cc1` [Benzyladenine]: 3.6. The same measure, in the same setting: the result for `O=c1cc(-c2ccccc2)oc2cc(O)c(O)c(O)c12` [Baicalein] reads 3.6; that for `O=c1ccc2cc(O)c(O)cc2o1` [Esculetin], 4.1. Regarding `COc1cc2c(cc1O)CC[n+]1cc3c(OC)c(OC)ccc3cc1-2` [Jatrorrhizine hydrochloride], the “Enrichment Fold, HSP70 binder selection” value in assay [1] is 4.5. Besides, the “Fold Change, enrichment folds for PARP-1 binder selection” value in assay [2] is on record as 2.23. As for `CC(=O)c1c(O)cc(O)cc1O` [Phloracetophenone], the “Enrichment Fold, HSP70 binder selection” value in assay [1] came out at 3.5.

Regarding `O=C1c2ccccc2C(=O)c2c1ccc(O)c2O` [Alizarin], the “Enrichment Fold, HSP70 binder selection” value in assay [1] came out at 4.3. Moreover, in assay [2], the “Fold Change, enrichment folds for PARP-1 binder selection” value is 2.02.

As for `Oc1cc(O)c2c(c1)O[C@H](c1cc(O)c(O)c(O)c1)[C@H](O)C2` [Epigallocatechin, epigallocatechin], the “Enrichment Fold, HSP70 binder selection” value in assay [1] is recorded as 4.3. Moreover, in assay [2], the “Fold Change, enrichment folds for PARP-1 binder selection” value came out at 2.53. Take `c1coc(CNc2ncnc3[nH]cnc23)c1` [Kinetin]: the “Enrichment Fold, HSP70 binder selection” value in assay [1] is recorded as 2.8. Regarding `CC1=CC(=O)c2c(O)cccc2C1=O` [Plumbagin], in assay [1], the “Enrichment Fold, HSP70 binder selection” value worked out at 4.4. Besides, the “Fold Change, enrichment folds for PARP-1 binder selection” value in assay [2] is recorded as 2.97. Turning to `O=c1c(O)c(-c2ccc(O)c(O)c2)oc2cc(O)cc(O)c12` [quercetin, Quercetin], the “Enrichment Fold, HSP70 binder selection” value in assay [1] was found to be 2.8. On the same count and under the same terms, the result for `COc1cc(C(=O)O[C@H]2[C@@H]3C=CO[C@@H](O[C@@H]4O[C@H](CO)[C@@H](O)[C@H](O)[C@H]4O)[C@@H]3[C@@]3(CO)O[C@@H]23)ccc1O` [Picroside II] reads 4.0. On to `COC1=C[C@@H]2[C@@H]3Cc4ccc(OC)c(O)c4[C@]2(CCN3C)CC1=O` [sinomenine], for which the “Enrichment Fold, HSP70 binder selection” value in assay [1] was 3.2. The same measure, in the same setting: the same measure for `C[C@H]1[C@H](OC(=O)CCC(=O)O)O[C@@H]2O[C@@]3(C)CC[C@H]4[C@H](C)CC[C@@H]1[C@@]24OO3` [Artesunate]: 2.4. As for (+)-Catechin Hydrate, in assay [1], the “Enrichment Fold, HSP70 binder selection” value was 3.8. For `CNCC(O)c1ccc(O)cc1` (stereo not drawn) [Synephrine], the “Enrichment Fold, HSP70 binder selection” value in assay [1] turned out to be 3.2. Besides, in assay [2], the “Fold Change, enrichment folds for PARP-1 binder selection” value stood at 2.17. `Oc1cc(O)c2c(c1)O[C@H](c1ccc(O)c(O)c1)[C@@H](O)C2` [(+) Catechin]: the “Enrichment Fold, HSP70 binder selection” value in assay [1] is 2.7. As for `COc1c(O)cc2c(c1O)[C@@H]1O[C@H](CO)[C@@H](O)[C@H](O)[C@H]1OC2=O` [Bengenin], in assay [1], the “Enrichment Fold, HSP70 binder selection” value is 3.6.

Turning to `COc1cc2ccc(=O)oc2cc1O` [Scopoletin], the “Enrichment Fold, HSP70 binder selection” value in assay [1] stood at 6.0. In addition, in assay [2], the “Fold Change, enrichment folds for PARP-1 binder selection” value is 2.82. Regarding `COc1ccc(-c2coc3cc(O)cc(O)c3c2=O)cc1` [Biochanin A], the “Enrichment Fold, HSP70 binder selection” value in assay [1] amounted to 3.7. Still for that read-out and setting: the same measure for `O=C1C[C@@H](c2ccc(O)cc2)Oc2cc(O)ccc21` [Liquiritigenin]: 2.7; for `O=c1ccc2ccc(O)cc2o1` [7-Hydroxycoumarin]: 4.2.

For `O=c1ccc2ccc(O)c(O)c2o1` [Daphnetin], in assay [1], the “Enrichment Fold, HSP70 binder selection” value worked out at 3.9. Also, the “Fold Change, enrichment folds for PARP-1 binder selection” value in assay [2] is listed as 2.17.

As for `O=c1c2ccccc2nc2n1CCc1c-2[nH]c2ccccc12` [rutaecarpin], in assay [1], the “Enrichment Fold, HSP70 binder selection” value is given as 3.2. Turning to `COC(=O)Nc1nc2ccc(C(=O)c3cccs3)cc2[nH]1` [Nocodazole, reference compound], the “Enrichment Fold, HSP70 binder selection” value in assay [1] is given as 3.9. For the same compound, in assay [2], the “Fold Change, enrichment folds for PARP-1 binder selection” value is given as 2.06. As to `Cn1cnc2c1c(=O)[nH]c(=O)n2C` [Theobromine, reference compound], the “Enrichment Fold, HSP70 binder selection” value in assay [1] is 4.3. In addition, the “Fold Change, enrichment folds for PARP-1 binder selection” value in assay [2] came to 2.42.

For the compound `Cc1c(F)cccc1NC(=O)Nc1ccc(Cl)c(S(=O)(=O)[C@H]2CCCNC2)c1O` [Danirixin], in assay [1], the “Enrichment Fold, HSP70 binder selection” value is 2.9. With `Cc1ncc(CO)c(CO)c1O` [Pyridoxine, reference compound], in assay [1], the “Enrichment Fold, HSP70 binder selection” value was 3.4.

With `O=C(CCc1ccc(O)cc1)c1c(O)cc(O)cc1O[C@@H]1O[C@H](CO)[C@@H](O)[C@H](O)[C@H]1O` [Phlorizin], the “Enrichment Fold, HSP70 binder selection” value in assay [1] came out at 3.8.

The values are drawn from patent publication US20220017471A1, “FUNCTIONALITY INDEPENDENT LABELING OF ORGANIC COMPOUNDS” (Shanghai Tech University, priority 2018, published 2022).
